For data set [1], the target named is T1, human full length HSD11β1 (Homo sapiens, UniProt P28845).
T1 construct: transient expression of human full length HSD11β1 expression vector; host or cells: CHO cells, transient transfection
Description: In Vitro HSD11β1 Inhibition Assay. The class given is cell-based. The settings on record: CHO cells transiently expressing human HSD11β1; 200 nM cortisone+500 uM NADPH overnight; cortisone to cortisol by LC/MS-MS; read-out: 11βHSD1 (IC50). The method, boiled down: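 Whole-cell assay in CHO cells transiently transfected with full-length human HSD11β1, re-seeded 24 h after transfection. Cells incubated overnight with 200 nM cortisone plus 500 uM NADPH, with or without inhibitor. Cortisone-to-cortisol conversion measured by LC/MS-MS; IC50 (nM) from an 8-point log concentration-inhibition curve.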

For data set [2] the following is noted: phase IIa, 28-days, placebo-controlled, two-step hyperinsulinemic clamp studies; cited from earlier work.

T1 sequence (P28845 whole entry): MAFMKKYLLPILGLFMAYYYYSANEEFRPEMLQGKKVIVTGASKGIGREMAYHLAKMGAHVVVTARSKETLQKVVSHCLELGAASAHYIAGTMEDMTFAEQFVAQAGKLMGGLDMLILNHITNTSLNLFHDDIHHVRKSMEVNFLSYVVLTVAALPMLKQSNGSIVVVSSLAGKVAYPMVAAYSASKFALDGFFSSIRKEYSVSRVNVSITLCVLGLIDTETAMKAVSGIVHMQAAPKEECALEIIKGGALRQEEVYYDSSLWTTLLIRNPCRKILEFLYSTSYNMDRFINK

As usually defined, the IC50 is the concentration that inhibits the measured activity by half. Consider `CC(CC(=O)N1C2CC3CC1CC(C(N)=O)(C3)C2)c1c[nH]c2cccc(Cl)c12` (stereo not drawn) [Example 47, 2-[3-(4-chloro-1H-indol-3-yl)butanoyl]-2-azatricyclo[3.3.1.1^3,7]decane-5-carboxamide], for which the half-maximal inhibitory concentration (IC50) in data set [1] is 0.15 to 0.2 µM.

Take `CC(CC(=O)N1C2CC3CC1CC(C(=O)O)(C3)C2)c1c[nH]c2cccc(C3CC3)c12` (stereo not drawn) [Example 51, 2-[3-(4-cyclopropyl-1H-indol-3-yl)butanoyl]-2-azatricyclo[3.3.1.1^3,7]decane-5-carboxylic acid]: the concentration for half-maximal inhibition (IC50) in data set [1] is over 0.25 µM.

`CC(CC(=O)N1C2CC3CC1CC(C(=O)O)(C3)C2)c1c[nH]c2cccc(Br)c12` (stereo not drawn) [Example 55, 2-[3-(4-bromo-1H-indol-3-yl)butanoyl]-2-azatricyclo[3.3.1.1^3,7]decane-5-carboxylic acid]: the IC50 in data set [1] is over 0.25 µM.

As to `CC(CC(=O)N1C2CC3CC1CC(C(N)=O)(C3)C2)c1c[nH]c2cccc(C3CC3)c12` (stereo not drawn) [Example 56, 2-[3-(4-cyclopropyl-1H-indol-3-yl)butanoyl]-2-azatricyclo[3.3.1.1^3,7]decane-5-carboxamide], in data set [1], the IC50 is under 0.1 µM.

Take `Cc1cccc2[nH]cc(C(C)CC(=O)N3C4CC5CC3CC(C(=O)O)(C5)C4)c12` (stereo not drawn) [Example 57, 2-[3-(4-methyl-1H-indol-3-yl)butanoyl]-2-azatricyclo[3.3.1.1^3,7]decane-5-carboxylic acid]: the 50% inhibitory concentration (IC50) in data set [1] is over 0.25 µM.

As to `CC(CC(=O)N1C2CC3CC1CC(CO)(C3)C2)c1c[nH]c2cccc(Cl)c12` (stereo not drawn) [Example 58, 3-(4-chloro-1H-indol-3-yl)-1-[5-(hydroxymethyl)-2-azatricyclo[3.3.1.1^3,7]dec-2-yl]butan-1-one], the IC50 in data set [1] is under 0.1 µM.

As for `CC(CC(=O)N1C2CC3CC1CC(C#N)(C3)C2)c1c[nH]c2cccc(Cl)c12` (stereo not drawn) [Example 59, 2-[3-(4-chloro-1H-indol-3-yl)butanoyl]-2-azatricyclo[3.3.1.1^3,7]decane-5-carbonitrile], the IC50 in data set [1] is 0.1 to 0.15 µM.

On to `Cc1[nH]c2cccc(Cl)c2c1C(C)CC(=O)N1C2CC3CC1CC(O)(C3)C2` (stereo not drawn) [Example 60, 3-(4-chloro-2-methyl-1H-indol-3-yl)-1-(5-hydroxy-2-azatricyclo[3.3.1.1^3,7]dec-2-yl)butan-1-one], for which the IC50 in data set [1] was over 0.25 µM.

As to `CC(CC(=O)N1C2CC3CC1CC(C(=O)O)(C3)C2)c1c[nH]c2ccccc12` (stereo not drawn) [Example 61, 2-[3-(1H-indol-3-yl)butanoyl]-2-azatricyclo[3.3.1.1^3,7]decane-5-carboxylic acid], the half-maximal inhibitory concentration (IC50) in data set [1] is over 0.25 µM.

Regarding `CC(CC(=O)N1C2CC3CC1CC(C(=O)O)(C3)C2)c1c[nH]c2cccc(-c3ccc(F)cc3)c12` (stereo not drawn) [Example 62, 2-{3-[4-(4-fluorophenyl)-1H-indol-3-yl]butanoyl}-2-azatricyclo[3.3.1.1^3,7]decane-5-carboxylic acid], the half-inhibitory concentration (IC50) in data set [1] was over 0.25 µM.

With `CC(CC(=O)N1C2CC3CC1CC(C(=O)NCc1ccc(C(=O)O)cc1)(C3)C2)c1c[nH]c2cccc(C3CC3)c12` (stereo not drawn) [Example 63, 4-{[({2-[3-(4-cyclopropyl-1H-indol-3-yl)butanoyl]-2-azatricyclo[3.3.1.1^3,7]dec-5-yl}carbonyl)amino]methyl}benzoic acid], the half-inhibitory concentration (IC50) in data set [1] is over 0.25 µM.

As for `CCC(CC(=O)N1C2CC3CC1CC(O)(C3)C2)c1c[nH]c2ccccc12` (stereo not drawn) [Example 64, 1-(5-hydroxy-2-azatricyclo[3.3.1.1^3,7]dec-2-yl)-3-(1H-indol-3-yl)pentan-1-one], the half-inhibitory concentration (IC50) in data set [1] lay in the range of 0.1 to 0.15 µM.

Take `CC(CC(=O)N1C2CC3CC1CC(C#N)(C3)C2)c1c[nH]c2ccccc12` (stereo not drawn) [Example 65]: the IC50 in data set [1] is 0.2 to 0.25 µM.

`O=C(CC(c1c[nH]c2ccccc12)C1CC1)N1C2CC3CC1CC(O)(C3)C2` (stereo not drawn) [Example 66, 3-cyclopropyl-1-(5-hydroxy-2-azatricyclo[3.3.1.1^3,7]dec-2-yl)-3-(1H-indol-3-yl)propan-1-one]: the IC50 in data set [1] was over 0.25 µM.

For `O=C(CC(c1ccccc1)c1c[nH]c2ccccc12)N1C2CC3CC1CC(O)(C3)C2` (stereo not drawn) [Example 67, 1-(5-hydroxy-2-azatricyclo[3.3.1.1^3,7]dec-2-yl)-3-(1H-indol-3-yl)-3-phenylpropan-1-one], the IC50 in data set [1] was in the range of 0.1 to 0.15 µM.

For the compound `CC(CC(=O)N1C2CC3CC1CC(O)(C3)C2)c1c[nH]c2ccc(Cl)cc12` (stereo not drawn) [Example 68, 3-(5-chloro-1H-indol-3-yl)-1-(5-hydroxy-2-azatricyclo[3.3.1.1^3,7]dec-2-yl)butan-1-one], the IC50 in data set [1] was over 0.25 µM.

As to `CC(CC(=O)N1C2CC3CC1CC(O)(C3)C2)c1c[nH]c2cc(Cl)ccc12` (stereo not drawn) [Example 69, 3-(6-chloro-1H-indol-3-yl)-1-(5-hydroxy-2-azatricyclo[3.3.1.1^3,7]dec-2-yl)butan-1-one], the IC50 in data set [1] is 0.1 to 0.15 µM.

Consider `Cc1cccc2[nH]cc(C(C)CC(=O)N3C4CC5CC3CC(C#N)(C5)C4)c12` (stereo not drawn) [Example 70, 2-[3-(4-methyl-1H-indol-3-yl)butanoyl]-2-azatricyclo[3.3.1.1^3,7]decane-5-carbonitrile], for which the IC50 in data set [1] was in the range of 0.15 to 0.2 µM.

In the case of `O=C(CC(c1ccc(Cl)cc1)c1c[nH]c2ccccc12)N1C2CC3CC1CC(O)(C3)C2` (stereo not drawn) [Example 71, 3-(4-chlorophenyl)-1-(5-hydroxy-2-azatricyclo[3.3.1.1^3,7]dec-2-yl)-3-(1H-indol-3-yl)propan-1-one], the IC50 in data set [1] is over 0.25 µM.

For `Cc1cccc2[nH]cc(C(CC(=O)N3C4CC5CC3CC(O)(C5)C4)c3ccccc3)c12` (stereo not drawn) [Example 72, 1-(5-hydroxy-2-azatricyclo[3.3.1.1^3,7′]dec-2-yl)-3-(4-methyl-1H-indol-3-yl)-3-phenylpropan-1-one], the half-inhibitory concentration (IC50) in data set [1] was over 0.25 µM.

For `CNC(=O)c1ccc(-c2ccc(C3(C(=O)N4CC[C@@]5(C4)OC(=O)c4ccccc45)CC3)cc2)cn1` [INCB13739], the safety and tolerability entry in data set [2] was “safe and well tolerated”.
